# Results from article PMC9106868 (European journal of medicinal chemistry, 2022).
# What was measured:
# GluN1/2A NMDARs = GluN1/2A NMDARs (Rattus norvegicus, UniProt P35439+Q00959); assay type: cell-based; conditions: after removal of 10 μM blocker
# 5XFAD mice hippocampus = assay: Western blot of hippocampal proteins after treatment; assay type: in vivo, mouse; conditions: 5 mg / kg
# NMDAR = conditions: cited from earlier work; for V0: previously reported values, ref [28],[63],[68],[80]–[81]; for IC50: therapeutically beneficial NMDAR antagonists, ref [28],[61]–[68]
# Caco-2 cells = assay: Caco-2 cell permeability; assay type: in vitro ADME; conditions: 10 μM in HBSS, 1 hour, 37 °C
# Sequence of GluN1/2A NMDARs (Q00959 23-1464, other chains not shown): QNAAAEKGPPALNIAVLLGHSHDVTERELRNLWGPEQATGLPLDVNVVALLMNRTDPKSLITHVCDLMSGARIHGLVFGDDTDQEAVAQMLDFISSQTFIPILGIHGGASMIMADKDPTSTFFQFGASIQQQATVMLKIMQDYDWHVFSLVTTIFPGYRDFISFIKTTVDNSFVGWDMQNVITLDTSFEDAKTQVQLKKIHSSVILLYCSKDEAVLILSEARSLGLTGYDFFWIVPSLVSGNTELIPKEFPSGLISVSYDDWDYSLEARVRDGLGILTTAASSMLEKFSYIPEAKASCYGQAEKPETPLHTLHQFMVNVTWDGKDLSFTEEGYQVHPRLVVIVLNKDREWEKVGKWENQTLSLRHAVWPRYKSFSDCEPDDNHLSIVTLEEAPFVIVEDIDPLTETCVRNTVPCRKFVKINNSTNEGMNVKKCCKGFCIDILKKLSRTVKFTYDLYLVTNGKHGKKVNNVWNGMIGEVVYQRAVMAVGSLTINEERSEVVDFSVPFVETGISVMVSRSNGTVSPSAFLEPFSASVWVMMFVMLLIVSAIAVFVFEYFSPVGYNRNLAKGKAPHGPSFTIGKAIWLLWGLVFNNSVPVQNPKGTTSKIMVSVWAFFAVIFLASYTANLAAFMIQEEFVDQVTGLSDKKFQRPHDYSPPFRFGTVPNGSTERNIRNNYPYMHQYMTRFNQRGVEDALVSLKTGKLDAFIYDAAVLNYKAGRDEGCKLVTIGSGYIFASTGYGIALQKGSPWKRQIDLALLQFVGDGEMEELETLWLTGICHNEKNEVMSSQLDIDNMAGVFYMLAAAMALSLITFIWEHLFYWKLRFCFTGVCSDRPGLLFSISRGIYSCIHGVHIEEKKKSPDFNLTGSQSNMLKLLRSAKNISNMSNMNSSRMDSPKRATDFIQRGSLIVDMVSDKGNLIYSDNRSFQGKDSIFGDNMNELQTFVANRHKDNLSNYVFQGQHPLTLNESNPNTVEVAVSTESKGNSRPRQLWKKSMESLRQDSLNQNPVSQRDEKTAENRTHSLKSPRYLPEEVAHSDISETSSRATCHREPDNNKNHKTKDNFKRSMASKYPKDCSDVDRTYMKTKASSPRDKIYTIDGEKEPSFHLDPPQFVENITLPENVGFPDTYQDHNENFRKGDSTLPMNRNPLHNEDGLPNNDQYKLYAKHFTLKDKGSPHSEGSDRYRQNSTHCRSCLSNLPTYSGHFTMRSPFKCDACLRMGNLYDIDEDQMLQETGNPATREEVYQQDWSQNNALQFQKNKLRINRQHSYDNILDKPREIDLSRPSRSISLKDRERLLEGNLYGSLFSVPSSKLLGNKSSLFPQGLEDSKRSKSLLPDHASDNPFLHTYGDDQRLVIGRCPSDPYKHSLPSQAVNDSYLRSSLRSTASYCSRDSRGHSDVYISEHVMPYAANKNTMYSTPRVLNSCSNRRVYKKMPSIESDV
molecule,measurement,setting,value
"CC12CC3CC(C)(C1)CC(N)(C3)C2 [Memantine, memantine]","Unblocking kinetics, τweighted",GluN1/2A NMDARs,6.4 ± 1.4 s
same,Calbindin D-28K protein levels,5XFAD mice hippocampus,reverts calbindin D-28K protein levels to WT levels
same,PSD95 expression,5XFAD mice hippocampus,rescues expression of postsynaptic density protein (PSD) 95
same,p-CREB protein levels in the nucleus,5XFAD mice hippocampus; vs untreated 5XFAD,significantly increased p-CREB protein levels in the nucleus
same,V0,NMDAR,26 – 30 mV
same,IC50,NMDAR,1 to 2 µM
NC12CC3CC(CC(C3)C1)C2 [amantadine],IC50,NMDAR,40 to 75 µM
CNC1(c2ccccc2Cl)CCCCC1=O (stereo not drawn) [ketamine],V0,NMDAR,26 – 30 mV
Lucifer yellow,Caco-2 Papp (monolayer integrity),Caco-2 cells,≤ 10 nm/s
